Assay results published in patent US20170368207A1, “SELF-ASSEMBLED NANOSTRUCTURE AND METHOD FOR PREPARING THE SAME” (National Chiao Tung University, priority 2016, published 2017).

Experiment: Relaxivity of contrast agents (Table 4)
Type: physicochemical
Text: Relaxivities of a self-assembled nanostructure of the invention, gadodiamide, and carboxymethyl hexanoyl chitosan that physically encapsulates gadodiamide are as shown in Table 4. Hereinafter, the symbol “CHC+Gd” represents that there is only physical mixing between gadodiamide and carboxymethyl hexanoyl chitosan, while the symbol “CHC−Gd” represents that chemical bonding exists between gadodiamide and carboxymethyl hexanoyl chitosan (i.e., the self-assembled nanostructure of the invention).
As a molecule grafted to a paramagnetic metal of a contrast agent is larger, a rotation time between the paramagnetic metal and a solvent molecule becomes longer, so that the relaxivity of the contrast agent is enhanced. The higher the relaxivity of the contrast agent, the better the contrast effect, i.e., the more excellent the contrasting ability. In the self-assembled nanostructure of the invention, gadolinium (paramagnetic metal) has an amphiphilic chitosan (polymer) grafted thereto, and thus has a higher relaxivity than the relaxivities of the single gadodiamide and CHC+Gd. […] In other words, the contrast agent compound of the invention, after being grafted to the amphiphilic chitosan, produces a synergistic effect on the contrasting ability of the contrast agent compound.

With `CNC(=O)CN(CCN(CCN(CC(=O)[O-])CC(=O)NC)CC(=O)[O-])CC(=O)[O-].[Gd+3]` [Gadodiamide, gadodiamide] the Relaxivity was 1.8158 mM⁻¹ s⁻¹.
